Here are results for 27 molecules from US10004701B2, “Methods and compositions for treating infection” (UNIVERSITY OF ROCHESTER, priority 2012, dated 2018).

One assay deals with T1, S. aureus DNA gyrase (Staphylococcus aureus, UniProt P0A0K8+P20831).
T1 construct: purchased TopoGEN
Description: S. aureus DNA gyrase supercoiling assay (TopoGEN). It counts as biochemical. The procedure: Reactions were incubated at 37° C. for 30 min and then stopped by the addition of 10% SDS, filtered through 0.025 μm Millipore membrane filters in a 10 mM Tris-HCl buffer (pH 8), and electrophoresed in a 1% agarose TAE gel. Gels were stained with 0.5 μg/ml ethidium bromide and images were analyzed using densitometry (Image J, NIH).

In a further assay the test system is S. aureus. Description: Minimum Inhibitory Concentration (MIC) testing, terfenadine study. In kind it is cell-based. The conditions noted are these: Staphylococcus aureus, 16 h.

pIC50: −log10 of the molar value. In brackets after ≈: the same amount, converted by molar mass. Where two headings read alike, the source gives them in different places.

Usually pIC50 stands for the IC50 on a negative log10 scale, so that one unit is a factor of ten. Lower therefore signals a large IC50. A word on the MIC: it is the least concentration at which growth counts as inhibited.

T1 sequence (P0A0K8 whole entry): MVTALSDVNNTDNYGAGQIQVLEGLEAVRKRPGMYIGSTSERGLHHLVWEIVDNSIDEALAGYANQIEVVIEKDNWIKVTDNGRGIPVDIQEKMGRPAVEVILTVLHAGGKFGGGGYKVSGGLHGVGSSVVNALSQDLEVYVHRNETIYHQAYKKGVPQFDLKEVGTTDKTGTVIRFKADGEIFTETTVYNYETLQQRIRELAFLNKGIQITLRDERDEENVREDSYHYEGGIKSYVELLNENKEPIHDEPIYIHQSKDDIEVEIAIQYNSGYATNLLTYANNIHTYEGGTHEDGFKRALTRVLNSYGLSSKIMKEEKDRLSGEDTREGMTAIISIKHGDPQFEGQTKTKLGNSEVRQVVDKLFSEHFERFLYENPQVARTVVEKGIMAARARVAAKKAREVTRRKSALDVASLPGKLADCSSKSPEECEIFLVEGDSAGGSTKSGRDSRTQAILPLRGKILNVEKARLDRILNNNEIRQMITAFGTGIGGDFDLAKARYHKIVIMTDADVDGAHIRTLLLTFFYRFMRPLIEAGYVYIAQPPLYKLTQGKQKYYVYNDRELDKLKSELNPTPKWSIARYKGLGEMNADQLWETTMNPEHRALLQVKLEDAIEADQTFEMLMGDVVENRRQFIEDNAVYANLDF
T1 sequence (P20831 whole entry): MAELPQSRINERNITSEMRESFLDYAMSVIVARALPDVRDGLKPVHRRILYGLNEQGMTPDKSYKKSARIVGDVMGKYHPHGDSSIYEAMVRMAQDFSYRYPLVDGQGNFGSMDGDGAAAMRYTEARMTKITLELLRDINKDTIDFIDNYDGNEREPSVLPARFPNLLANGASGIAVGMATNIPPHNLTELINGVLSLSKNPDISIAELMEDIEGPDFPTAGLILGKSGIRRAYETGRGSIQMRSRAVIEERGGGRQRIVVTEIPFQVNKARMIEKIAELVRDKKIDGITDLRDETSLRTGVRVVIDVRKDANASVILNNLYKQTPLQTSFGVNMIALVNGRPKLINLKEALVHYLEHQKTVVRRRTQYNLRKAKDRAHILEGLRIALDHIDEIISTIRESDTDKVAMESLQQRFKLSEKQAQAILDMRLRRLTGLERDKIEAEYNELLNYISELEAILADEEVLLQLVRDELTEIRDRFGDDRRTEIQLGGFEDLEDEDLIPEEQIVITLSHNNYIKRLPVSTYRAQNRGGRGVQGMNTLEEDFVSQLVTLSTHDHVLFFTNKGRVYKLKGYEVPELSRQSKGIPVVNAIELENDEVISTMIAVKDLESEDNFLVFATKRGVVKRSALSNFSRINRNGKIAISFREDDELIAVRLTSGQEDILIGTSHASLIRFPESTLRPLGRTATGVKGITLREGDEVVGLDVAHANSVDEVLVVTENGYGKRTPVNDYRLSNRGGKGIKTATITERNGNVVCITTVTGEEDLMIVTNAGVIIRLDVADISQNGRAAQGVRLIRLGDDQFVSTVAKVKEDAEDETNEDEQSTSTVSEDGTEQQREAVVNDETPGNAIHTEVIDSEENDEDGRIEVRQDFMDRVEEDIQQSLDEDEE

The molecule `CC(C)(C)c1ccc(NCCCN2CCC(C(O)(c3ccccc3)c3ccccc3)CC2)cc1` [Compound 41, (1-(3-((4-(Tert-butyl)phenyl)amino)propyl)piperidin-4-yl)diphenylmethanol] showed a negative logarithm of the IC50 (pIC50) at S. aureus DNA gyrase of 3.37. The molecule also yielded an MIC against S. aureus of 8 µg/mL (≈ 17.5 µM).

Regarding `CC(C)(C)c1ccc(OCCCN2CCC(C(O)(c3ccccc3)c3ccccc3)CC2)cc1` [Compound 42, (1-(3-(4-(Tert-butyl)phenoxy)propyl)piperidin-4-yl)diphenylmethanol], on S. aureus DNA gyrase, the pIC50 was 3.66.

`OC(CCCN1CCC(C(O)(c2ccccc2)c2ccccc2)CC1)c1ccc(-c2ccccc2)cc1` (centres unmarked) [Compound 25, 1-([1,1′-biphenyl]-4-yl)-4-(4-(hydroxydiphenylmethyl)piperidin-1-yl)butan-1-ol] had a pIC50 on S. aureus DNA gyrase of 4.57. Further, in the assay with S. aureus, 8 µg/mL (≈ 16.3 µM) was the least that counted as inhibitory (MIC).

`CC(C)(C)c1ccc(CCCN2CCC(C(O)(c3ccccc3)c3ccccc3)CC2)cc1` [Compound 22, (1-(3-(4-(Tert-butyl)phenyl)propyl)piperidin-4-yl)diphenylmethanol] had a pIC50 on S. aureus DNA gyrase of 3.68. In addition, the minimal inhibitory concentration (MIC) in the assay on S. aureus was 8 µg/mL (≈ 18.1 µM).

Consider `CC(C)(C)c1ccc(C(O)CCCN2CCC(Cc3ccccc3)CC2)cc1` (centres unmarked) [Compound 40, 4-(4-Benzylpiperidin-1-yl)-1-(4-(tert-butyl)phenyl)butan-1-ol], for which, on S. aureus DNA gyrase, the pIC50 was less than 3.06. In the assay on S. aureus, this molecule showed a minimal inhibitory concentration (MIC) of 64 µg/mL (≈ 169 µM).

Molecule `CC(C)(C)c1ccc(C(=O)CCN2CCC(C(O)(c3ccccc3)c3ccccc3)CC2)cc1` [Compound 21, 1-(4-(tert-butyl)phenyl)-3-(4-(hydroxydiphenylmethyl)piperidin-1-yl)propan-1-one] had a pIC50 at S. aureus DNA gyrase of 3.70. This molecule had an MIC in the assay on S. aureus of 32 µg/mL (≈ 70.2 µM).

The molecule `COc1ccc(C(O)CCCN2CCC(C(O)(c3ccccc3)c3ccccc3)CC2)cc1` (centres unmarked) [Compound 7, 4-(4-(hydroxydiphenylmethyl)piperidin-1-yl)-1-(4-methoxyphenyl)butan-1-ol] had a pIC50 against S. aureus DNA gyrase of less than 2.95. In the assay with S. aureus, this molecule came in with an MIC of 256 µg/mL (≈ 575 µM).

As for `OC(c1ccccc1)(c1ccccc1)C1CCN(CCc2ccc(-c3ccncc3)cc2)CC1` [Compound 33, Diphenyl(1-(4-(pyridin-4-yl)phenethyl)piperidin-4-yl)methanol], on S. aureus DNA gyrase, the pIC50 was 3.68. Besides, the minimum inhibitory concentration (MIC) against S. aureus came to 32 µg/mL (≈ 71.3 µM).

Take `OC(c1ccccc1)(c1ccccc1)C1CCN(CCc2ccc(-c3cccnc3)cc2)CC1` [Compound 35, Diphenyl(1-(4-(pyridin-3-yl)phenethyl)piperidin-4-yl)methanol]: the pIC50 against S. aureus DNA gyrase was 3.25. This molecule displayed an MIC in the assay on S. aureus of 32 µg/mL (≈ 71.3 µM).

Molecule `Cc1ccc(C(O)CCCN2CCC(C(O)(c3ccccc3)c3ccccc3)CC2)cc1` (centres unmarked) [Compound 14, 4-(4-(hydroxydiphenylmethyl)piperidin-1-yl)-1-(p-tolyl)butan-1-ol] showed a negative-log IC50 (pIC50) against S. aureus DNA gyrase of less than 2.93. In addition, it took 128 µg/mL (≈ 298 µM) to inhibit growth in the assay on S. aureus (MIC).

On S. aureus DNA gyrase, `Nc1ccc(CCN2CCC(C(O)(c3ccccc3)c3ccccc3)CC2)cc1` [Compound 34, (1-(4-aminophenethyl)piperidin-4-yl)diphenylmethanol] had a pIC50 of 3.62. Moreover, in the assay with S. aureus, the minimal inhibitory concentration (MIC) turned out to be 256 µg/mL (≈ 662 µM).

At S. aureus DNA gyrase, `COC(=O)c1ccc(C(O)CCCN2CCC(C(O)(c3ccccc3)c3ccccc3)CC2)cc1` (centres unmarked) [Compound 18, Methyl 4-(1-hydroxy-4-(4-(hydroxydiphenylmethyl)piperidin-1-yl)butyl)benzoate] gave a pIC50 of 3.03. Moreover, the minimum inhibitory concentration (MIC) in the assay with S. aureus was 256 µg/mL (≈ 541 µM).

At S. aureus DNA gyrase, `O=[N+]([O-])c1ccc(CCN2CCC(C(O)(c3ccccc3)c3ccccc3)CC2)cc1` [Compound 29, (1-(4-nitrophenethyl)piperidin-4-yl)diphenylmethanol] gave a pIC50 of 3.20. The same molecule showed an MIC against S. aureus of 64 µg/mL (≈ 154 µM).

At S. aureus DNA gyrase, `OC(CCCN1CCC(C(O)(c2ccccc2)c2ccccc2)CC1)c1ccc(F)cc1` (centres unmarked) [Compound 8, 1-(4-fluorophenyl)-4-(4-(hydroxydiphenylmethyl)piperidin-1-yl)butan-1-ol] showed a negative logarithm of the IC50 (pIC50) of less than 2.94. This molecule also gave a minimal inhibitory concentration (MIC) in the assay with S. aureus of 128 µg/mL (≈ 295 µM).

`CC(C)(C)c1ccc(C(O)CCCCN2CCC(C(O)(c3ccccc3)c3ccccc3)CC2)cc1` (centres unmarked) [Compound 2, 1-(4-(tert-butyl)phenyl)-5-(4-(hydroxydiphenylmethyl)piperidin-1-yl)pentan-1-ol] showed a negative logarithm of the IC50 (pIC50) against S. aureus DNA gyrase of 3.69. Further, 16 µg/mL (≈ 32.9 µM) was the least that counted as inhibitory with S. aureus (MIC).

The molecule `CC(C)(C)c1ccc(CN2CCC(C(O)(c3ccccc3)c3ccccc3)CC2)cc1` [Compound 26, (1-(4-(tert-butyl)benzyl)piperidin-4-yl)diphenylmethanol] gave a negative-log IC50 (pIC50) against S. aureus DNA gyrase of 3.66.

Molecule `OC(c1ccccc1)(c1ccccc1)C1CCN(CCc2ccc(Br)cc2)CC1` [Compound 30, (1-(4-bromophenethyl)piperidin-4-yl)diphenylmethanol] gave a pIC50 against S. aureus DNA gyrase of 3.26. The MIC with S. aureus worked out at 16 µg/mL (≈ 35.5 µM).

For `CC(C)(C)c1ccc(CCN2CCC(C(O)(c3ccccc3)c3ccccc3)CC2)cn1` [Compound 43, (1-(2-(6-(Tert-butyl)pyridin-3-yl)ethyl)piperidin-4-yl)diphenylmethanol], at S. aureus DNA gyrase, the pIC50 is less than 3.11. This molecule showed an MIC against S. aureus of 64 µg/mL (≈ 149 µM).

For the molecule `OC(c1ccccc1)(c1ccccc1)C1CCN(CCc2ccc(Cl)cc2)CC1` [Compound 44, (1-(4-Chlorophenethyl)piperidin-4-yl)diphenylmethanol], at S. aureus DNA gyrase, the pIC50 was 3.19. The molecule also came in with a minimum inhibitory concentration (MIC) against S. aureus of 32 µg/mL (≈ 78.8 µM).

Consider `CC(C)(C)c1ccc(C(=O)N2CCC(C(O)(c3ccccc3)c3ccccc3)CC2)cc1` [Compound 27, (4-(tert-butyl)phenyl)(4-(hydroxydiphenylmethyl)piperidin-1-yl)methanone], for which, at S. aureus DNA gyrase, the negative logarithm of the IC50 (pIC50) is 3.66. The same molecule showed a minimum inhibitory concentration (MIC) in the assay with S. aureus of more than 256 µg/mL.

Consider `OC(CCCN1CCC(C(O)(c2ccccc2)c2ccccc2)CC1)c1ccc(Br)cc1` (centres unmarked) [Compound 9, 1-(4-bromophenyl)-4-(4-(hydroxydiphenylmethyl)piperidin-1-yl)butan-1-ol], for which, at S. aureus DNA gyrase, the pIC50 is less than 3.00. This molecule also had an MIC against S. aureus of 32 µg/mL (≈ 64.7 µM).

Consider `CC(C)(C)c1cccc(CCN2CCC(C(O)(c3ccccc3)c3ccccc3)CC2)c1` [Compound 39, (1-(3-(Tert-butyl)phenethyl)piperidin-4-yl)diphenylmethanol], for which the negative logarithm of the IC50 (pIC50) at S. aureus DNA gyrase was 3.66. Moreover, the MIC in the assay on S. aureus was 16 µg/mL (≈ 37.4 µM).

Consider `OC(c1ccccc1)(c1ccccc1)C1CCN(CCc2ccc(F)cc2)CC1` [Compound 38, (1-(4-Fluorophenethyl)piperidin-4-yl)diphenylmethanol], for which the pIC50 against S. aureus DNA gyrase was less than 3.07. The same molecule came in with a minimal inhibitory concentration (MIC) against S. aureus of 128 µg/mL (≈ 329 µM).

Turning to `OC(CCCN1CCC(C(O)(c2ccccc2)c2ccccc2)CC1)c1ccccc1` (centres unmarked) [Compound 6, 4-(4-(hydroxydiphenylmethyl)piperidin-1-yl)-1-phenylbutan-1-ol], the negative-log IC50 (pIC50) against S. aureus DNA gyrase was less than 2.92. Besides, the MIC in the assay with S. aureus worked out at 256 µg/mL (≈ 616 µM).

In the case of `CC(C)(C)c1ccc(CCN2CCC(C(O)(c3ccccc3)c3ccccc3)CC2)cc1` [Compound 23, (1-(4-(Tert-butyl)phenethyl)piperidin-4-yl)diphenylmethanol], at S. aureus DNA gyrase, the pIC50 was 3.66. Besides, the MIC against S. aureus came to 8 µg/mL (≈ 18.7 µM).

As to `CC(C)(C)c1ccc(C(N)CCCN2CCC(C(O)(c3ccccc3)c3ccccc3)CC2)cc1` (centres unmarked) [Compound 24, (1-(4-amino-4-(4-(tert-butyl)phenyl)butyl)piperidin-4-yl)diphenylmethanol], in the assay on S. aureus, the MIC came out at 16 µg/mL (≈ 34 µM).

Consider `CC(C)(C)c1ccc(C(O)CN2CCC(C(O)(c3ccccc3)c3ccccc3)CC2)cc1` (centres unmarked) [Compound 17, 1-(4-(tert-butyl)phenyl)-2-(4-(hydroxydiphenylmethyl)piperidin-1-yl)ethanol], for which the MIC in the assay with S. aureus (S. aureus, MHB, strain not given, read-out: MIC) came out at 16 µg/mL (≈ 36.1 µM).
